Measured values: patent US5494917A, “Cognition enhancing quinuclidine compound” (Kanegafuchi Kagaku Kogyo Kabushiki Kaisha, priority 1993, dated 1996)

Assays:
[1] = tested on: experimental amnesia in rat induced by lesioning basal forebrain (BF); assay: Anti-amnesic effect: step-through passive avoidance, amnesia induced by BF lesion (ibotenic acid); format: in vivo, Wistar male rat; settings: for Latency: retention after 24 hours, max 300 s; for minimal effective dose: Rattus norvegicus, oral, BF lesion amnesia, read-out: most potent minimal effective dose
Description: (§1) As experimental animals, Wistar male rats and ddY male mice were used for the experiments after they were housed for a week under every 12 hours'dark-light cycle at room temperature of 24° to 26° C.
The effect on experimental amnesia in rat induced by lesioning basal forebrain (BF) was evaluated.
The experiment was carried out using an experimental apparatus of step-through type passive avoidance task for rat (made by Ohara-ika-sangyoK.K. ) comprising two compartments of dark and light. That is, the dark compartment (height: 200 cm, width: 150 cm, length: 200 cm) was a black plastic box and was floored with stainless grids for giving an electrical shock so that an electricity might be turned on a determined time after interception of a photobeam placed in the dark compartment. The light compartment made of transparent plastic (height: 200 cm, width: 250 cm, length: 200 cm) was provided adjacent to the dark compartment and was lightened from a location spaced 25 cm above by a 60 W electric lamp. Between the two compartments, there was provided an entrance with a guillotine door which could be opened and closed, and when the guillotine door was opened, a rat could freely move from one compartment to another.
Amnesia was induced by BF lesion. Among presently known methods for inducing amnesia, this method is considered to provide an animal model having the most similar pathology to Alzheimer's disease. The BF lesion was carried out by fixing an animal to a stereotaxic apparatus under nembutal anesthesia, inserting a stainless pipe into the BF area according to the brain map of Koenig, and injecting ibotenic acid bilaterally from the stainless pipe. In the sham-operation group, although craniotomy was carried out, ibotenic acid was not injected and therefore BF was not lesioned. The animals were used for experiments after recovery period of about 4 weeks.
Anti-amnesic effect was evaluated according to the following procedure.
A Wistar male rat (9 week-old) previously conditioned in the dark-light box was put in the light compartment and the guillotine door was opened. When the rat moved into the dark compartment, 150 V electrical shock was given for 3 seconds from the floor grid (aquisition trial). After 24 hours, retention trial was carried out in the same manner as in the aquisition trial, and latency, a period until the animal put in the light compartment entered the dark compartment, was measured maximally 300 seconds.
Every test compound was suspended in a distilled water containing 2.5% of gum arabic and 0.2% of Tween 80. […] The doses were 0.01 to 10 mg/kg.

M2 receptor = target: T1, M2 receptor (Rattus norvegicus, UniProt P10980); assay: M2 receptor binding ((3H)N-methyl scopolamine, heart)
T1 construct: from tissue; host or cells: rat heart, 40,000 g membrane fraction
T1 sequence (P10980 1-466): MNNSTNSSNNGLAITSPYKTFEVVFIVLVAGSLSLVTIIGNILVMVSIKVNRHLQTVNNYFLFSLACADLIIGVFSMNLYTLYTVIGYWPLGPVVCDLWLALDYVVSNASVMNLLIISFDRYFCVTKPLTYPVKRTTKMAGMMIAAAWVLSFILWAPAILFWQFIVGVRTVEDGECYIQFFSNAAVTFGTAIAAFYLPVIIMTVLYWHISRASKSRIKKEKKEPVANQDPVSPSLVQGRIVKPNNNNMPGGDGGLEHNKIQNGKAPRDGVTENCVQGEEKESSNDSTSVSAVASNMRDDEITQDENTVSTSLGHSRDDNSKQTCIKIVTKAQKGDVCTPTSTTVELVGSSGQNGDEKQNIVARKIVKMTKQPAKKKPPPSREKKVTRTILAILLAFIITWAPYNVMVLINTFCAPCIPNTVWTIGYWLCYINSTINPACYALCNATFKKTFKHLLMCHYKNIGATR
Description: The binding ability to M2 receptor was determined according to a modification of the method of Buckley et al. (Mol. Pharmacol., 35, 469 (1989)). Concretely, 10 volume (W/V) of 50 mM Tris-HCl buffer (pH 7.4) was added to rat's heart, and after the homogenization with polytron, the homogenate was centrifuged and washed twice at 500 g for 10 minutes. The resulting supernatant was centrifuged four times at 40,000 g for 20 minutes. To 450 μl of the test liquid which was prepared by re-suspending the resulting precipitate, were added 200 μl of (^3 H)N-methyl scopolamine, a muscarinic specific antagonist, and 100 μl of a test medicinal compound. After the incubation at 22° C. for 90 minutes, the amount of (^3 H)N-methyl scopolamine found was determined.
(§2) Ki is an affinity of a medicinal compound for a receptor, which is calculated from the following formula: [formula]
(§3) In addition, nH is pseudo Hill coefficient which represents the number of a binding part of a receptor. When the values of IC50 and Ki are smaller, a binding ability of a medicinal compound to a receptor is stronger.

M1 receptor = target: T2, M1 receptor (Rattus norvegicus, UniProt P08482); assay: M1 receptor binding ((3H)pirenzepine, cerebral cortex); set-up: species or system Wistar male rat; settings: for nH (pseudo Hill coefficient) / IC50 / Ki: (3H)pirenzepine, rat cerebral cortex; for IC50: 25° C., 60 minutes, pH 7.4; for Ki: calculated from IC50; for M1 receptor binding ability / selectivity (in words): M1 vs M2; for M1 receptor binding ability compared with muscarinic agonists (in words): vs AF102B and McN-A-343
T2 construct: from tissue; host or cells: Wistar male rat cerebral cortex, washed homogenate
T2 sequence (P08482 1-460): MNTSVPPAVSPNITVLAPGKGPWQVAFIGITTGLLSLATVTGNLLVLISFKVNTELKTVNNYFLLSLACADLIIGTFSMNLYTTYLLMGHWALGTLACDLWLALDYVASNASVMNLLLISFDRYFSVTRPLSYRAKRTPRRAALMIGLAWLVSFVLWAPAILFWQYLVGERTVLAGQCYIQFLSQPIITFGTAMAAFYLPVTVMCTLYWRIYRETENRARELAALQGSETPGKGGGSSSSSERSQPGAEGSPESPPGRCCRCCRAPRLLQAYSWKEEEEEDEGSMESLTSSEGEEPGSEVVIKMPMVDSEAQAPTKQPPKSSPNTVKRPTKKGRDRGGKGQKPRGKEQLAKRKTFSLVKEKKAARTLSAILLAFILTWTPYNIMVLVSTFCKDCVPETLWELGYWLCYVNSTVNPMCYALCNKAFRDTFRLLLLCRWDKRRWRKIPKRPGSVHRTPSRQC
Description: The binding ability of the test compounds to M1 receptor was determined according to a modification of the method of Watson et al. (Life Sci., 32, 3001 (1983)). Concretely, 100 volume (W/V) of 10 mM Na--K phosphate buffer (pH 7.4) was added to a cerebral cortex of a Wistar male rat, and after the homogenization with polytron, the homogenate was centrifuged and washed twice. To 1 ml of the test liquid which was prepared by re-suspending the resulting precipitate, were added 20 μl of (^3 H)pirenzepine, M1 receptor specific antagonist, and 20 μl of a test medicinal compound. After the incubation at 25° C. for 60 minutes, the mixture was filtrated and washed with a glass filter, and an amount of (^3 H)pirenzepine bound to the receptor was counted by means of a liquid scintillation counter.
as §2, §3

[2] = Acute toxicity test, oral; format: in vivo, ddY male mice; settings: mouse, in vivo; oral, 2 weeks observation; estimated
Description: as §1
(§4) With respect to Compounds 1a and 1b shown in Table 1 as test compounds, the acute toxicity was examined using ddY mice according to the following method.
(§5) In each group, six male ddY mice weighing 27 to 30 g were employed. Compounds 1a and 1b suspended in an aqueous solution of 0.5% sodium carboxymethylcellulose were orally administered in a dose of 0.1 ml/10 g body weight. […] The LD50 (mg/kg) values were estimated from the ratio of the number of dead mice to the number of mice used.

ddY mice = assay: Acute toxicity test, oral; format: in vivo, ddY male mice; settings: 100 mg/kg oral, 2 weeks observation, 0.5% sodium carboxymethylcellulose
Description: as §1, §4, §5

[3] = (3H)N-methyl scopolamine, rat heart, 22° C., 90 minutes, pH 7.4
[4] = 0.1 mg/kg p.o., 1 hour before aquisition trial
[5] = 1.0 mg/kg p.o., 1 hour before aquisition trial

Row | Structure (SMILES) | Latency ([1]; 1.0 mg/kg p.o., 30 minutes before aquisition trial) [s] | Latency ([1]; 5.0 mg/kg p.o., 30 minutes before aquisition trial) [s] | IC50 (M2 receptor; [3]) [nM] | nH (pseudo Hill coefficient) (M1 receptor) | IC50 (M1 receptor) [nM] | Ki (M1 receptor) [nM] | minimal effective dose [1] [mg/kg] | Latency [1, 4] [s] | Latency [1, 5] [s] | M1 receptor binding ability / selectivity (in words) (M1 receptor) | M1 receptor binding ability compared with muscarinic agonists (in words) (M1 receptor) | LD50 at 336 h [2] [mg/kg] | dead mice (ddY mice) | Latency ([1]; 0.01 mg/kg p.o., 1 hour before aquisition trial) [s] | Latency ([1]; 10 mg/kg p.o., 1 hour before aquisition trial) [s] | nH (pseudo Hill coefficient) (M2 receptor; (3H)N-methyl scopolamine, rat heart) | Ki (M2 receptor; (3H)N-methyl scopolamine, rat heart, calculated from IC50) [nM] | IC50 (M2 receptor; M2 receptor binding) [nM] | M2 receptor binding ability weaker than M1 receptor binding ability (M2 receptor; M2 vs M1)
1 | Nc1c2c(nc3ccccc13)CCCC2 [Tacrine, tetrahydroaminoacridine, reference compound] | 79 | 188 |  |  |  |  |  |  |  |  |  |  |  |  |  |  |  |  | 
2 | C[N+](C)(C)CC#CCOC(=O)Nc1cccc(Cl)c1 [McN-A-343, 4[[[3-chlorophenyl)amino]carbonyl]oxy]-N, N, N-trimethyl-2-butyn-1-aminium chloride, reference compound] |  |  | > 10000 | 0.9 ± 0.05 | 842 ± 88 | 581 ± 61 |  |  |  |  |  |  |  |  |  |  |  |  | 
3 | CC1OC2(CS1)CN1CCC2CC1 (stereo not drawn) [AF102B, cis-2-methylspiro(1,3-oxathiolane-5,3') quinuclidine, reference compound] |  |  | > 10000 | 0.8 ± 0.01 | 729 ± 116 | 509 ± 80 | 1 |  |  |  |  |  |  |  |  |  |  |  | 
4 | C(=C1/CN2CCC1CC2)/c1cccc(Oc2ccccc2)c1 [Compound 1a] |  |  | > 10000 | 0.9 ± 0.06 | 221 ± 32 | 152 ± 22 | 1 | 38 | 156 | strong and specific M1 receptor binding ability | stronger binding ability to M1 than muscarinic agonists, AF102B (in course of clinical testing) and McN-A-343 | ≥ 100 | no dead mice |  |  |  |  |  | 
5 | C(=C1\CN2CCC1CC2)/c1cccc(Oc2ccccc2)c1 [Compound 1b] |  |  | 4400 ± 100 | 0.8 ± 0.07 | 23 ± 3 | 16 ± 2 | 0.1 | 182 | 139 | strong and specific M1 receptor binding ability | stronger binding ability to M1 than muscarinic agonists, AF102B (in course of clinical testing) and McN-A-343 | ≥ 100 | no dead mice | 76 | 99 | 1.0 ± 0.02 | 1700 ± 40 | ≤ 10000 | about 190 times
